Measurements published in ChEMBL document CHEMBL1133951, “New anti-malarial flavonol glycoside from Hydrangeae Dulcis Folium” (2001).

What was measured:
Plasmodium falciparum [1] = experiment: Anti-malarial potency against Plasmodium falciparum at 0.1 ng/ml; format: functional
Plasmodium falciparum [2] = experiment: Antimalarial potency against Plasmodium falciparum at 0.5 ng/mL.; format: functional
Plasmodium falciparum [3] = experiment: Anti-malarial potency against Plasmodium falciparum at 5 ng/ml; format: functional
Plasmodium falciparum [4] = experiment: Antimalarial potency against Plasmodium falciparum at 0.05 ng/mL.; format: functional
Plasmodium falciparum [5] = experiment: Inhibitory ratio on proliferation of Plasmodium falciparum at 0.1 uM; format: functional
KB 3-1 [6] = experiment: Cytotoxic activity against KB 3-1 cells at 5 ug/m; Not detected.; format: functional, cell-based; settings: Homo sapiens
KB 3-1 [7] = experiment: Cytotoxic activity against KB 3-1 cells at 5 ug/mL; Not detected.; format: functional, cell-based; settings: Homo sapiens

| SMILES | Activity (Plasmodium falciparum [1]) [%] | Activity (Plasmodium falciparum [2]) [%] | Activity (Plasmodium falciparum [3]) [%] | Activity (Plasmodium falciparum [4]) [%] | Inhibitory ratio (Plasmodium falciparum [5]) | Cytotoxicity (KB 3-1 [6]) | Cytotoxicity (KB 3-1 [7]) |
| --- | --- | --- | --- | --- | --- | --- | --- |
| O=c1c(O[C@@H]2O[C@H](CO)[C@H](O)[C@@H](O)[C@H]2O)c(-c2ccc(O)c(O)c2)oc2cc(O)cc(O)c12 | 27.7 | 31.7 | 36.8 | 31.1 | – | – | – |
| C=C[C@H]1CN2CC[C@H]1C[C@H]2[C@H](O)c1ccnc2ccc(OC)cc12 [QUININE] | – | – | – | – | 45.3 | – | – |
| O=c1c(O[C@@H]2O[C@H](CO[C@@H]3OC[C@@H](O)[C@H](O)[C@H]3O)[C@H](O)[C@H](O)[C@H]2O)c(-c2ccc(O)cc2)oc2cc(O)cc(O)c12 | 43.1 | 61.9 | 56.2 | 22.4 | – | Not detected | – |
| CC(=O)OC[C@H]1O[C@@H](O[C@@H]2[C@@H](O)[C@@H](O)[C@H](Oc3c(-c4ccc(O)c(O)c4)oc4cc(O)cc(O)c4c3=O)O[C@H]2C)[C@H](O)[C@H](O)[C@H]1O | 40.3 | 52.1 | 65.4 | 27.4 | – | – | Not detected |
| C[C@@H]1O[C@@H](OC[C@H]2O[C@H](Oc3c(-c4ccc(O)cc4)oc4cc(O)cc(O)c4c3=O)[C@H](O)[C@H](O)[C@H]2O)[C@H](O)[C@H](O)[C@H]1O | 49.1 | 60.1 | 50.9 | 30.5 | – | – | – |
| C[C@@H]1O[C@@H](Oc2c(-c3ccc(O)c(O)c3)oc3cc(O)cc(O)c3c2=O)[C@H](O)[C@H](O)[C@H]1O [QUERCITRIN] | 39.4 | 36 | 32.9 | 34 | – | – | – |
| C[C@@H]1O[C@@H](OC[C@H]2O[C@@H](Oc3c(-c4ccc(O)cc4)oc4cc(O)cc(O)c4c3=O)[C@H](O[C@H]3OC[C@H](O)[C@@H](O)[C@@H]3O)[C@@H](O)[C@H]2O)[C@H](O)[C@H](O)[C@H]1O | 54.2 | 68.7 | 58.9 | 37.6 | – | – | Not detected |
| C[C@@H]1O[C@@H](OC[C@H]2O[C@H](Oc3c(-c4ccc(O)c(O)c4)oc4cc(O)cc(O)c4c3=O)[C@H](O)[C@H](O)[C@H]2O)[C@H](O)[C@H](O)[C@H]1O | 51.6 | 56 | 56.4 | 38.7 | – | – | Not detected |
| COc1cc(-c2oc3cc(O)cc(O)c3c(=O)c2O[C@H]2O[C@H](CO[C@@H]3O[C@@H](C)[C@H](O)[C@@H](O)[C@H]3O)[C@H](O)[C@@H](O)[C@H]2O)ccc1O | 24.5 | 44.5 | 41.5 | 10.8 | – | – | – |
| C[C@@H]1O[C@@H](Oc2c(-c3ccc(O)c(O)c3)oc3cc(O)cc(O)c3c2=O)[C@H](O)[C@H](O)[C@H]1O[C@@H]1O[C@H](CO)[C@H](O)[C@@H](O)[C@H]1O | 32.8 | 43.4 | 48.1 | 25 | – | – | – |
